From the METLIN SMRT retention time set (Domingo-Almenara et al. 2019)

Assay: gradient 5% acetonitrile 3 min, to 50% in 2 min, to 85% in 15 min, held 3 min, 100 µL/min
Conditions: column: Zorbax Extend-C18 2.1 x 50 mm; eluents: water / acetonitrile, 0.1% formic acid
How it was run: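 Values are retention times taken from adduct peaks that software picked and an analyst inspected. The pure standards were run as mixtures of ~100 molecules on HPLC linked to a quadrupole time-of-flight mass spectrometer, in positive and negative ionization mode. A Zorbax Extend-C18 column (2.1 × 50 mm, 1.8 μm) was used at 100 μL/min with water and acetonitrile, each including 0.1% formic acid.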

Structure (SMILES) | RP-LC retention time
Cc1nc(-c2cnccn2)nc2c1CCC(=O)N2Cc1cccc(F)c1 | 733 s
CCn1c(=O)n(CC)c2cc(S(=O)(=O)c3ccc(C)cc3)c(NC(C)=O)cc21 | 759 s
CC(C)c1noc(-c2cccnc2N2CCCN(Cc3cccc(C(F)(F)F)c3)CC2)n1 | 794 s
COc1ccc(-c2ncc3c(n2)CCN(C(=O)c2ccc(F)cc2Cl)C3)cc1 | 971 s
CCCC(=O)Nc1ccc2nc(N3CCN(c4cccc(C)c4C)CC3)cc(C(=O)O)c2c1 | 732 s
Clc1ccc(-c2csc(NCc3ccccc3)n2)cc1 | 1170 s
O=C(Cn1cc(-c2nc(-c3ccc(Cl)cc3)no2)ccc1=O)NC1CCCCC1 | 1030 s
Cn1cc(CN2CCCC(COc3ccccc3C(=O)N3CCOCC3)C2)c2ccccc21 (configuration not stated) | 664 s
COc1ccc(NC(=O)c2cc(C)n3nccc3n2)cc1Cl | 942 s
Cc1ccc(-c2cc(C(=O)N3CCOCC3)nn2C2CCS(=O)(=O)C2)cc1C (configuration not stated) | 780 s
O=C(CCc1nc(-c2ccc(N3CCCC3)cc2)no1)Nc1ccc2c(c1)OCCO2 | 1010 s
CC(C)n1c(N2CCCN(C(=O)c3cccnc3)CC2)cc(=O)n(C(C)C)c1=O | 668 s
COc1cccc(CNC(=O)C2(c3ccc(NC(C)=O)cc3)CCC2)c1 | 737 s
CCCn1cc(C2=CCN(C(=O)Nc3ccc4c(c3)OCCO4)CC2)c2cccnc21 | 846 s
O=C(c1ccccc1)N1CCC(C(=O)N2CCc3ccccc32)CC1 | 750 s
COc1ccccc1-c1ccc(N2CCN(C(=O)c3ccccc3Cl)CC2)nn1 | 626 s
O=C(NC1CC1)C1CCCN(c2nccn3nc(-c4ccccc4Cl)cc23)C1 (configuration not stated) | 788 s
CCOC(=O)c1nc(Nc2ccc(C)cc2Cl)c2ccccc2n1 | 929 s
CSc1cccc(NC(=O)N2CCN(Cc3nc4cccnc4n3-c3ccc(F)cc3)CC2)c1 | 711 s

Structure (SMILES) | RP-LC retention time
CCc1ccc(NC(=O)N2CCc3nc(-c4ccc(Cl)cc4)ncc3C2)cc1 | 1150 s
CC(C)CCNC(=O)C1(C)Cn2nc(C(=O)NCCc3ccccc3)cc2C(=O)N1C (configuration not stated) | 791 s
COCCN1C(=O)CCc2cc(NS(=O)(=O)c3ccc(C)c(C)c3)ccc21 | 816 s
COc1cccc(CNC(=O)CCNc2cnc3cnccn23)c1 | 585 s
COc1ccc(Cl)cc1N1CC(c2nc3ccccc3n2CC(=O)N2CCOCC2)CC1=O (configuration not stated) | 662 s
CCC(=O)n1nc(-c2ccc(C)c(C)c2)nc1N | 923 s
COc1c(O)ccc2c1CN1CCc3cc4c(cc3C1C2)OCO4 (configuration not stated) | 688 s
Cc1c(C(=O)NC(C)C)cnn1-c1ccc(-c2nc(C(C)C)no2)cn1 | 931 s
c1cncc(-c2nc3ccccc3s2)c1 | 873 s
O=C(CN1CCCCC1c1nc(-c2cccs2)no1)NCc1ccc(Cl)cc1 (configuration not stated) | 1060 s
O=c1ccn(-c2ccc(F)c(F)c2)nc1-c1nc(-c2ccccc2)no1 | 878 s
COc1ccc(-c2csc(NC(=O)c3ccc(C)o3)n2)cc1 | 962 s
COc1ccccc1-c1nc2nccc(-c3cc(OC)c(OC)c(OC)c3)n2n1 | 824 s
COCC(C)NC(=O)c1cc2c(s1)N(CC(C)C)CCCC2 (configuration not stated) | 1080 s
COc1cccc(C2OC(c3cccc(Cn4cccn4)c3)=NN2C(C)=O)c1OC(C)=O (configuration not stated) | 832 s
Cc1ccc(CNC(=O)N2CCN(Cc3nc4cc(-c5ccccc5)ccc4o3)CC2)cc1 | 854 s
Cc1nc(C(=O)Nc2cccc(C(F)(F)F)c2)c(C)o1 | 988 s
CN(C1CCOCC1)C1CCN(C(=O)CCc2nc3ccccc3[nH]2)CC1 | 519 s
